Data set [1] concerns the target T1, Melanin-concentrating hormone receptor 1 (Homo sapiens, UniProt Q99705). The data set is described as follows: Binding affinity to human MCHR1.
Data set [2] has as its target T1, Melanin-concentrating hormone receptor 1. Nature of the data set: Antagonist activity at human MCHR1 by [35S]GTP-gamma-S binding assay. The format is functional.
The target of the next data set is Cytochrome P450 2D6 (Homo sapiens, UniProt P10635). The data set is described as follows: Inhibition of CYP2D6. The class given is ADME. The settings on record: for Activity: human.
Cytochrome P450 2D6, sequence (P10635 whole entry): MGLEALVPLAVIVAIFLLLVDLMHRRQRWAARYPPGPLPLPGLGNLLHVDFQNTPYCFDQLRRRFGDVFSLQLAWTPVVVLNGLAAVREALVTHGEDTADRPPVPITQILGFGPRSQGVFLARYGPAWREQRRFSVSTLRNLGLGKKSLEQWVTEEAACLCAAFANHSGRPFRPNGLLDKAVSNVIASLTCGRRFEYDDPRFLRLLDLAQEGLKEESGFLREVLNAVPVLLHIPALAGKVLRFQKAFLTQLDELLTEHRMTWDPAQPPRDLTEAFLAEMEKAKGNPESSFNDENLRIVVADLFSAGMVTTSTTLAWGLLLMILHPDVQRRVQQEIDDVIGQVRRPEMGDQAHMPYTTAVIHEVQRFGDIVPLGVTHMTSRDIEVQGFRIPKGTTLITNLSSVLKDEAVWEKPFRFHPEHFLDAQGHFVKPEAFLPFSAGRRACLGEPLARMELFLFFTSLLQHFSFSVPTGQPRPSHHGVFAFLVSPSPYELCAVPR
A short description of data set [3]: Intrinsic clearance in human liver microsome. The format is ADME. The settings on record: liver microsomes. Background: Liver microsomes are vesicles of endoplasmic reticulum, rich in cytochrome P450 enzymes.
The target in another data set is CYP2D6 (Homo sapiens, UniProt P10635). Nature of the data set: Inhibition of CYP2D6 at 120 uM. The class given is ADME.
CYP2D6, sequence (P10635 whole entry): as above

The record followed here is ChEMBL document CHEMBL1147859, “Thienopyrimidinone bis-aminopyrrolidine ureas as potent melanin-concentrating hormone receptor-1 (MCH-R1) antagonists” (Bioorg Med Chem Lett, 2007).

T1 sequence (Q99705 whole entry): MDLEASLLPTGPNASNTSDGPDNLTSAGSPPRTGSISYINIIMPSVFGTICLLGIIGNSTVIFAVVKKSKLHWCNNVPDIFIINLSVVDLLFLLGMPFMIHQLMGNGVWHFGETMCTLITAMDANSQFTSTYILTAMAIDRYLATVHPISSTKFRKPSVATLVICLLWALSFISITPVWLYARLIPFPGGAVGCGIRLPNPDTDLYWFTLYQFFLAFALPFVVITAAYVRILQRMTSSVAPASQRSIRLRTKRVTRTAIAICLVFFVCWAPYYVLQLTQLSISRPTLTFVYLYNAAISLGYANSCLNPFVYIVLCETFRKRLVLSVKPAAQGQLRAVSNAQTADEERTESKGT

One may read the Ki as a dissociation constant, usually derived from enzyme kinetics or from competition with a known ligand. A higher Ki goes with lower affinity. `CN(C(=O)N1CC[C@@H](n2cnc3cc(-c4ccc(Cl)cc4)sc3c2=O)C1)[C@@H]1CCN(C2CCOCC2)C1` showed a Ki in data set [1] of 69 nM. Same read-out and setting: under `COc1ccc(-c2cc3ncn([C@H]4CCN(C(=O)N(C)[C@H]5CCN(C6CCOCC6)C5)C4)c(=O)c3s2)c(C)c1` stands 28 nM. The same measure, in the same setting: in the case of `Cc1ccc(-c2cc3ncn([C@H]4CCN(C(=O)N(C)[C@H]5CCN(C6CCOCC6)C5)C4)c(=O)c3s2)c(C)c1` it was 70 nM.

`COc1ccc(-c2cc3ncn([C@H]4CCN(C(=O)N(C)[C@H]5CCN(C)C5)C4)c(=O)c3s2)cc1` showed a Ki in data set [1] of 21 nM. Compound `Cc1ccc(-c2cc3ncn([C@H]4CCN(C(=O)N(C)[C@H]5CCN(C6CCOCC6)C5)C4)c(=O)c3s2)cc1` registered a Ki in data set [1] of 14 nM. As usually defined, the IC50 is the point on the concentration scale where inhibition reaches its midpoint. `CC(C)N1CC[C@H](N(C)C(=O)N2CC[C@H](n3cnc4cc(-c5ccc(Cl)cc5)sc4c3=O)C2)C1` registered an inhibition constant Ki in data set [1] of 5 nM. Also, in data set [2], the IC50 was determined as 23 nM. In the same order, the values of `CN(C(=O)N1CC[C@H](n2cnc3cc(-c4ccc(Cl)cc4)sc3c2=O)C1)[C@H]1CCN(C2CCCC2)C1` are 4 nM and 13 nM. As to `CN(C(=O)N1CC[C@H](n2cnc3cc(-c4ccc(Cl)cc4)sc3c2=O)C1)[C@H]1CCN(C2CCC(C)(C)CC2)C1`, the Ki in data set [1] is 2 nM. Moreover, the IC50 in data set [2] turned out to be 10 nM; at Cytochrome P450 2D6, 3.4 µM.

Consider `CN(C(=O)N1CC[C@H](n2cnc3cc(-c4ccc(C(F)(F)F)cc4)sc3c2=O)C1)[C@H]1CCN(C2CCOCC2)C1`, for which the Ki in data set [1] was determined as 19 nM.

With `CN(C(=O)N1CC[C@@H](n2cnc3cc(-c4ccc(Cl)cc4)sc3c2=O)C1)[C@H]1CCN(C2CCOCC2)C1`, the Ki in data set [1] was 154 nM. This Ki is about 8.1-fold higher than that of the compound before. One may read the CLint scaled as the rate of metabolic loss divided by the concentration. High values mean faster metabolism, low ones greater metabolic stability. With `CN(C(=O)N1CC[C@H](n2cnc3cc(-c4ccc(Cl)cc4)sc3c2=O)C1)[C@H]1CCN(CCCc2ccccc2)C1`, the Ki in data set [1] amounted to 6 nM. Moreover, the IC50 in data set [2] is 31 nM; against Cytochrome P450 2D6, 8.6 µM. For the same compound, in data set [3], the CLint scaled amounted to 41 mL/min/kg. In data set [1], `CN1CC[C@H](N(C)C(=O)N2CC[C@H](n3cnc4cc(-c5ccc(OC(F)(F)F)cc5)sc4c3=O)C2)C1` gave a Ki of 39 nM. In other words, the double-digit nanomolar range. On the same count and under the same terms, under `Cc1ccc(-c2cc3ncn([C@H]4CCN(C(=O)N(C)[C@H]5CCN(C)C5)C4)c(=O)c3s2)c(C)c1` stands 49 nM.

Regarding `CN(C(=O)N1CC[C@H](n2cnc3cc(-c4ccc(Cl)cc4)sc3c2=O)C1)[C@H]1CCN(CC2CCOCC2)C1`, the Ki in data set [1] worked out at 7 nM. In data set [2], this compound yielded an IC50 of 11 nM. Take `CN(C(=O)N1CC[C@H](n2cnc3cc(-c4ccc(Cl)cc4)sc3c2=O)C1)[C@H]1CCN(C2CCC2)C1`: the affinity in data set [1] corresponds to a Ki of 1 nM. Further, in data set [2], the IC50 turned out to be 9 nM. In the same order, the values of `CN(C(=O)N1CC[C@H](n2cnc3cc(-c4ccc(Cl)cc4)sc3c2=O)C1)[C@H]1CCNC1` are 17 nM and 29 nM. As for `CN(C(=O)N1CCC(n2cnc3cc(-c4ccc(Cl)cc4)sc3c2=O)C1)[C@@H]1CCN(C2CCOCC2)C1` (single isomer, unassigned), in data set [1], the Ki stood at 21 nM. In data set [1], `CN1CC[C@H](N(C)C(=O)N2CC[C@H](n3cnc4cc(-c5ccc(Cl)cc5)sc4c3=O)C2)C1` came in with a Ki of 10 nM. Besides, in data set [2], the IC50 stood at 20 nM. On Cytochrome P450 2D6, this compound registered an Activity of 99 µM. Further, in data set [3], the CLint scaled turned out to be 16 mL/min/kg. Compound `CN(C(=O)N1CC[C@H](n2cnc3cc(-c4ccc(Cl)cc4)sc3c2=O)C1)[C@H]1CCN(CC2CC2)C1` displayed a Ki in data set [1] of 3 nM. In data set [2], the IC50 came out at 10 nM.

In data set [1], `COc1ccc(-c2cc3ncn([C@H]4CCN(C(=O)N(C)[C@H]5CCN(C)C5)C4)c(=O)c3s2)c(C)c1` came in with a Ki of 46 nM. Regarding `CN(C(=O)N1CC[C@H](n2cnc3cc(-c4ccc(Cl)cc4)sc3c2=O)C1)[C@H]1CCN(CC2CCOC2)C1` (some centres not stated), the Ki in data set [1] was 4 nM. In data set [2], this compound had an IC50 of 10 nM.

The compound `CN(C(=O)N1CC[C@H](n2cnc3cc(-c4ccc(Cl)cc4)sc3c2=O)C1)[C@H]1CCN(CC2CCCCC2)C1` showed a Ki in data set [1] of 50 nM. The compound further had an IC50 in data set [2] of 53 nM. `CCOc1ccc(-c2cc3ncn([C@H]4CCN(C(=O)N(C)[C@H]5CCN(C)C5)C4)c(=O)c3s2)c(Cl)c1`: in data set [1], the affinity corresponds to a Ki of 26 nM. Broadly, the inhibition is the relative decrease from the control value, in per cent. Low values mean a response near the control, high ones a response far below the control. The compound `CCc1ccc(-c2cc3ncn([C@H]4CCN(C(=O)N(C)[C@H]5CCN(C)C5)C4)c(=O)c3s2)cc1` displayed a Ki in data set [1] of 5 nM. At CYP2D6, the inhibition at 120 µM came to 42%. This compound registered a CLint scaled in data set [3] of 200 mL/min/kg. Turning to `CN(C(=O)N1CC[C@H](n2cnc3cc(-c4ccc(Cl)cc4)sc3c2=O)C1)[C@H]1CCN(CCC2CCOCC2)C1`, in data set [1], affinity was put at a Ki of 7 nM. Besides, in data set [2], the IC50 was 11 nM.

In data set [1], `CN1CC[C@H](N(C)C(=O)N2CC[C@H](n3cnc4cc(-c5ccc(C(F)(F)F)cc5)sc4c3=O)C2)C1` registered a Ki of 17 nM. `CCc1ccc(-c2cc3ncn([C@H]4CCN(C(=O)N(C)[C@H]5CCN(C6CCOCC6)C5)C4)c(=O)c3s2)cc1` returned a Ki in data set [1] of 8 nM. On Cytochrome P450 2D6, the Activity is 57 µM. The compound further had a CLint scaled in data set [3] of 85 mL/min/kg. `CN(C(=O)N1CC[C@H](n2cnc3cc(-c4ccc(Cl)cc4)sc3c2=O)C1)[C@H]1CCN(C2CCOCC2)C1` gave a Ki in data set [1] of 3 nM. For the same compound, the IC50 in data set [2] came out at 23 nM; against Cytochrome P450 2D6 it was 22.5 µM. The compound further returned a CLint scaled in data set [3] of 24 mL/min/kg. In turn, `CCOc1ccc(-c2cc3ncn([C@H]4CCN(C(=O)N(C)[C@H]5CCN(C6CCOCC6)C5)C4)c(=O)c3s2)c(Cl)c1` registered a Ki in data set [1] of 14 nM.

In data set [1], `CN1CC[C@H](N(C)C(=O)N2CC[C@H](n3cnc4cc(-c5ccc6c(c5)OCCO6)sc4c3=O)C2)C1` came in with a Ki of 143 nM. In the case of `CN(C(=O)N1CC[C@H](n2cnc3cc(-c4ccc(Cl)cc4)sc3c2=O)C1)[C@H]1CCN(Cc2ccoc2)C1`, the Ki in data set [1] stood at 4 nM. This compound yielded an IC50 in data set [2] of 15 nM. As for `CN(C(=O)N1CC[C@H](n2cnc3cc(-c4ccc(OC(F)(F)F)cc4)sc3c2=O)C1)[C@H]1CCN(C2CCOCC2)C1`, in data set [1], the affinity corresponds to a Ki of 18 nM. On the same count and under the same terms, in the case of `Cc1ccc(-c2cc3ncn([C@H]4CCN(C(=O)N(C)[C@H]5CCN(C)C5)C4)c(=O)c3s2)cc1` it was 15 nM; in that of `CN(C(=O)N1CC[C@H](n2cnc3cc(-c4ccc5c(c4)OCCO5)sc3c2=O)C1)[C@H]1CCN(C2CCOCC2)C1`, 45 nM. On the same count and under the same terms, in the case of `CN(C(=O)N1CC[C@H](n2cnc3cc(-c4ccc(Cl)cc4)sc3c2=O)C1)[C@H]1CCN(CC(=O)c2ccc(OC(F)(F)F)cc2)C1` it was 80 nM. In data set [1], `CN(C(=O)N1CC[C@H](n2cnc3cc(-c4ccc(Cl)cc4)sc3c2=O)C1)[C@H]1CCN(CC(=O)C(C)(C)C)C1` showed a Ki of 17 nM. This compound also yielded an IC50 in data set [2] of 44 nM.
